Measurements: EPA's ToxValDB 9.5 (doi:10.2903/j.efsa.2018.5152)

Experiments:
Typhlodromus pyri = experiment: LR50; higher = less toxic; conditions: not reported; mortality
Colinus virginianus = conditions: chronic
Apis mellifera = conditions: acute, mortality
[1] = short-term; duration: 28 days; reproduction
Tagia sp. = conditions: chronic/long-term; duration: 28 days; reproduction
Aphidius rhopalosiphi = experiment: LR50; higher = less toxic; conditions: not reported; mortality
Oncorhynchus mykiss = conditions: acute; duration: 96 hours; mortality

Work on `O.O.[Cu]` [Copper hydroxide (Cu(OH)2)] yielded an LR50 (Typhlodromus pyri) of over 14900 g/ha, an NOEL (Colinus virginianus) of 5.05 mg/kg-day and an LD50 (Apis mellifera; dermal) of 44.5 µg/piece. The LC50 (Daphnia magna; acute, duration: 48 hours, mortality) was 0.0266 µg/mL.
Molecule `[Cl][Cu][Cl]` [Copper(II) chloride] has an NOEC [1] of 16.2 mg/kg-day and an NOEC (Tagia sp.) of 8.4 mg/kg.
`[Cu+].[Cu+].[O-2]` [Cuprous oxide] gave an LR50 (Typhlodromus pyri) of over 26100 g/ha, an LR50 (Aphidius rhopalosiphi) of 39200 g/ha and an LC50 (Oncorhynchus mykiss) of 0.207 µg/mL.
With `[Cl-].[Cu+2].[Cu+2].[OH-].[OH-].[OH-]` [Dicopper chloride trihydroxide] the LR50 (Typhlodromus pyri) was over 14900 g/ha, the LD50 (Apis mellifera; dermal) was 44.3 µg/piece and the LD50 (Apis mellifera; oral, unspecified) was 12.1 µg/piece. The NOEC (Daphnia magna; chronic/long-term, duration: 21 days, reproduction) was 0.0076 mg/L.
